Calls of active or inactive are those of the source. The calls are words filed in the database; no cut-off is given here.
Tests used:
HeLa [1] = experiment: Cytotoxicity against human HeLa cells assessed as cell viability after 48 hrs by MTT assay; type: functional, cell-based
A549 [2] = experiment: Cytotoxicity against human A549 cells assessed as cell viability after 48 hrs by MTT assay; type: functional, cell-based; settings: A549, 48 h
HeLa [3] = experiment: Cytotoxicity against human HeLa cells assessed as cell viability after 72 hrs by MTT assay; type: functional, cell-based
A549 [4] = experiment: Cytotoxicity against human A549 cells assessed as cell viability after 72 hrs by MTT assay; type: functional, cell-based; settings: A549, 72 h
MCF7 [5] = experiment: Cytotoxicity against human MCF7 cells assessed as cell viability after 48 hrs by MTT assay; type: functional, cell-based; settings: MCF7, 48 h
MCF7 [6] = experiment: Cytotoxicity against human MCF7 cells assessed as cell viability after 72 hrs by MTT assay; type: functional, cell-based; settings: MCF7, 72 h
Vero [7] = experiment: Cytotoxicity against african green monkey Vero cells assessed as cell viability after 48 hrs by MTT assay; type: cell-based; settings: Chlorocebus sabaeus
Vero [8] = experiment: Cytotoxicity against african green monkey Vero cells assessed as cell viability after 72 hrs by MTT assay; type: cell-based; settings: Chlorocebus sabaeus
Vero [9] = experiment: Selectivity index, ratio of IC50 for african green monkey Vero cells to IC50 for human MCF7 cells after 48 hrs
HeLa [10] = experiment: Induction of apoptosis in human HeLa cells assessed as DNA fragmentation at 16 uM after 48 hrs by agarose gel electrophoresis; type: functional, cell-based
HeLa [11] = experiment: Induction of apoptosis in human HeLa cells assessed as DNA fragmentation at 16 to 32 uM after 24 hrs by agarose gel electrophoresis; type: functional, cell-based
HeLa [12] = experiment: Induction of apoptosis in human HeLa cells assessed as DNA fragmentation at 4 to 32 uM after 12 hrs by agarose gel electrophoresis; type: functional, cell-based
HeLa [13] = experiment: Induction of apoptosis in human HeLa cells assessed as chromatin condensation at 8 uM after 12 hrs using Hoechst 33342 staining by fluorescence microscopic analysis; type: functional, cell-based
HeLa [14] = experiment: Induction of apoptosis in human HeLa cells assessed as formation of apoptotic bodies at 8 uM after 12 hrs using Hoechst 33342 staining by fluorescence microscopic analysis; type: functional, cell-based
HeLa [15] = experiment: Increase in apoptosis in human HeLa cells at 8 uM after 12 hrs using Hoechst 33342 staining by fluorescence microscopic analysis relative to control; type: functional
Caspase-3 (Homo sapiens) [16] = biological target: T1, Caspase-3 (Homo sapiens) (UniProt P42574); experiment: Induction of caspase 3 activation in human HeLa cells using Ac-DEVD-pNA after 4 hrs by Bradford assay; type: cell-based
T1 sequence (whole entry): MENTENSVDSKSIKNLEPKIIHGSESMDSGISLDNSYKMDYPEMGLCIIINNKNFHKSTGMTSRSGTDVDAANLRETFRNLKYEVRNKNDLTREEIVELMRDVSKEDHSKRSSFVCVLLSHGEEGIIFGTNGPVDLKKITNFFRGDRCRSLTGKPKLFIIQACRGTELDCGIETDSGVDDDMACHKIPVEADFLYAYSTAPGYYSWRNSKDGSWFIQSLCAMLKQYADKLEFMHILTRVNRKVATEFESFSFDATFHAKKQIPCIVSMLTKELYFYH

Caspase-3 (Homo sapiens) [17] = biological target: T1, Caspase-3 (Homo sapiens); experiment: Induction of caspase 3 activation in human HeLa cells using Ac-DEVD-pNA at 4 uM after 4 hrs by Bradford assay; type: cell-based
Caspase-3 (Homo sapiens) [18] = biological target: T1, Caspase-3 (Homo sapiens); experiment: Induction of caspase 3 activation in human HeLa cells using Ac-DEVD-pNA at 8 uM after 4 hrs by Bradford assay; type: cell-based
HeLa [19] = experiment: Induction of apoptosis in human HeLa cells assessed as phosphatidylserine externalization at 2 to 16 uM using annexin/PI staining by fluorescence microscopy; type: functional, cell-based; settings: TDE = time-dependent effect
HeLa [20] = experiment: Induction of apoptosis in human HeLa cells assessed as necrotic cells at 2 to 16 uM using annexin/PI staining by fluorescence microscopy; type: functional, cell-based; settings: TDE = time-dependent effect
HeLa [21] = experiment: Induction of apoptosis in human HeLa cells assessed as early apoptotic cells at 2 to 4 uM up to 4 hrs using annexin/PI staining by fluorescence microscopy; type: functional, cell-based
HeLa [22] = experiment: Induction of apoptosis in human HeLa cells assessed as late apoptotic cells at 2 to 4 uM up to 4 hrs using annexin/PI staining by fluorescence microscopy; type: functional, cell-based
HeLa [23] = experiment: Induction of apoptosis in human HeLa cells assessed as phosphatidylserine externalization after 0.5 to 4 hrs using annexin/PI staining by fluorescence microscopy; type: functional, cell-based
HeLa [24] = experiment: Induction of apoptosis in human HeLa cells assessed as necrotic cells after 0.5 to 4 hrs using annexin/PI staining by fluorescence microscopy; type: functional, cell-based
HeLa [25] = experiment: Induction of apoptosis in human HeLa cells assessed as increase in sub-G1 DNA content at 24 uM after 12 hrs using Propidium iodide staining by flow cytometry; type: functional, cell-based
Caspase-3 (Homo sapiens) [26] = biological target: T1, Caspase-3 (Homo sapiens); experiment: Induction of caspase 3 activation in human HeLa cells using Ac-DEVD-pNA at 24 uM after 8 hrs by Bradford assay; type: cell-based
Caspase-3 (Homo sapiens) [27] = biological target: T1, Caspase-3 (Homo sapiens); experiment: Increase in caspase 3 activation in human HeLa cells using Ac-DEVD-pNA at 32 uM after 4 hrs by Bradford assay relative to control; type: cell-based
HeLa [28] = experiment: Induction of apoptosis in human HeLa cells assessed as necrotic cells at 8 uM after 1 to 2 hrs using annexin/PI staining by fluorescence microscopy; type: functional, cell-based

| Structure (SMILES) | IC50 (HeLa [1]) [µM] | IC50 (A549 [2]) [µM] | IC50 (HeLa [3]) [µM] | IC50 (A549 [4]) [µM] | IC50 (MCF7 [5]) [µM] | IC50 (MCF7 [6]) [µM] | IC50 (Vero [7]) [µM] | IC50 (Vero [8]) [µM] | Ratio IC50 (Vero [9]) | Activity (HeLa [10]) | Activity (HeLa [11]) | Activity (HeLa [12]) | Activity (HeLa [13]) | Activity (HeLa [14]) | Activity (Caspase-3 (Homo sapiens) [16]) | Activity (Caspase-3 (Homo sapiens) [17]) | Activity (Caspase-3 (Homo sapiens) [18]) | Activity (HeLa [19]) | Activity (HeLa [20]) | Activity (HeLa [23]) | also measured |
| --- | --- | --- | --- | --- | --- | --- | --- | --- | --- | --- | --- | --- | --- | --- | --- | --- | --- | --- | --- | --- | --- |
| CC1=C(C)C(=O)O[C@@H]([C@@H](C)[C@H]2CC=C3[C@@H]4C[C@H]5O[C@]56[C@@H](O)C=CC(=O)[C@]6(C)[C@H]4CC[C@@]32C)C1 | 3.5 | 2.6 | 2.9 | 2.1 | 1.3 | 0.3 | 6.2 | 1.2 | 1.7 | inactive | inactive | inactive | Active | Active | Dose-dependent effect | inactive | inactive | tde | tde | Dose-dependent effect | Activity (HeLa [15]): 27%; Activity (HeLa [21]): Active; Activity (HeLa [22]): Active; Activity (HeLa [24]): Dose-dependent effect |
| CC1=C(CO)C(=O)O[C@@H]([C@@H](C)[C@H]2CC[C@H]3[C@@H]4C[C@H]5O[C@]56[C@@H](O)C=CC(=O)[C@]6(C)[C@H]4CC[C@]23C)C1 [WITHAFERIN A] | 3 | 6.6 | 2.3 | 1.5 | 3.6 | 0.6 | 1.3 | 1.7 | <1 | inactive | inactive | inactive | Active | Active | Dose-dependent effect | inactive | inactive | tde | tde | Dose-dependent effect | Activity (HeLa [25]): Active; Activity (Caspase-3 (Homo sapiens) [26]): Active; Activity (HeLa [21]): Active; Activity (HeLa [24]): Dose-dependent effect |
| CC1=C(C)C(=O)O[C@@H]([C@@H](C)[C@H]2CC[C@H]3[C@@H]4C[C@H]5O[C@]56[C@@H](O)C=CC(=O)[C@]6(C)[C@H]4CC[C@]23C)C1 | 4.6 | 9 | 3.4 | 1.5 | 6.6 | 1.1 | 1.5 | 2.2 | <1 | inactive | inactive | inactive | Active | Active | Dose-dependent effect | inactive | inactive | tde | tde | Dose-dependent effect | Activity (HeLa [25]): Active; Activity (HeLa [21]): Active; Activity (HeLa [24]): Dose-dependent effect |
| CC1=C(CO[Si](C)(C)C(C)(C)C)C(=O)O[C@@H]([C@@H](C)[C@H]2CC[C@H]3[C@@H]4C[C@H]5O[C@]56[C@@H](O)C=CC(=O)[C@]6(C)[C@H]4CC[C@]23C)C1 | 0.9 | 1.5 | 1 | 1.5 | 0.7 | 0.7 | 0.7 | 0.9 | 1 | inactive | inactive | inactive | Active | Active | Dose-dependent effect | inactive | inactive | tde | tde | Dose-dependent effect | Activity (HeLa [25]): Active; Activity (Caspase-3 (Homo sapiens) [27]): inactive; Activity (HeLa [28]): inactive; Activity (HeLa [24]): Dose-dependent effect |
